Results from the OPERA property sets (Mansouri et al. 2018).
Where a SMILES comes first, the peptide text is derived from it.

Question: Which logP does the source give for `CSCCNC(=O)C(F)(F)Cn1cnc([N+](=O)[O-])n1` here?
Answer: 0.41

Question: For `CNN=Nc1ccc(C(N)=O)cc1`, which logP is on record?
Answer: 0.47

Question: Which logP does the source give for `CCN1C(=O)C(=O)c2c(C(N)=O)cccc2C1=O` here?
Answer: -0.5

Question: With `CNCCN(C)S(=O)(=O)c1ccc(CONC(N)=O)c([N+](=O)[O-])c1` as the molecule, how does the logP read?
Answer: 0.45

Question: With `CC1CCCC(C)C1NC(=O)N(CCCl)N=O` (configuration not stated) as the molecule, how does the logP read?
Answer: 2.57

Question: For `CSCCCNC(=O)C(F)(F)Cn1cnc([N+](=O)[O-])n1`, which logP is on record?
Answer: 0.76

Question: Which logP does the source give for `CC(OCc1cn(C)c(C=NO)n1)C(C)(C)C` (configuration not stated) here?
Answer: 2.53

Question: With `CSC(SC)=C(C(=O)OC(C)C)C(=O)OC(C)C` as the molecule, how does the logP read?
Answer: 3.38

Question: Which logP does the source give for `Nc1nc2c(ncn2C2OC(CO)CC2F)c(=O)[nH]1` (configuration not stated) here?
Answer: -1.18

Question: For `Clc1cc(-c2c(Cl)c(Cl)c(Cl)c(Cl)c2Cl)c(Cl)c(Cl)c1Cl`, which logP is on record?
Answer: 9.14

Question: Which logP does the source give for `CCC(C)N1C(=O)C(=O)c2ccccc2C1=O` (configuration not stated) here?
Answer: 2.15

Question: Which logP does the source give for `COC(=O)CNC(=O)C1(O)C(C)CC2C3CCC4=CC(=O)C=CC4(C)C3(F)C(O)CC21C` (configuration not stated) here?
Answer: 1.69

Question: With `CCOC(=S)NCCn1c([N+](=O)[O-])cnc1C` as the molecule, how does the logP read?
Answer: 1.5

Question: Which logP does the source give for `COc1nc(C(Cl)(Cl)Cl)nc(C(Cl)(Cl)Cl)n1` here?
Answer: 3.64

Question: Which logP does the source give for `Cc1nc([N+](=O)[O-])c(Cl)n1C` here?
Answer: 0.34

Question: With `O=C(O)c1ccc(CCl)cc1` as the molecule, how does the logP read?
Answer: 2.12

Question: With `CC(NC(=O)N(CCCl)N=O)C(=O)O` (configuration not stated) as the molecule, how does the logP read?
Answer: 0.78

Question: For `Cc1cccc(C)c1NN=C(C#N)C#N`, which logP is on record?
Answer: 2.8

Question: For `CCCn1c(=O)c2[nH]c(-c3ccc(S(=O)(=O)NCCN(C)C)cc3)nc2n(CCC)c1=O`, which logP is on record?
Answer: 3.32

Question: With `c1ccc([C@H]2CN3CCSC3=N2)cc1` as the molecule, how does the logP read?
Answer: 1.84

Question: For `Cc1n[nH]c(C(=O)N2CCCC2)c1[N+](=O)[O-]`, which logP is on record?
Answer: 0.25

Question: With `Cn1cc(-c2ccccc2)c(=O)c(-c2cccc(C(F)(F)F)c2)c1` as the molecule, how does the logP read?
Answer: 3.16

Question: For `Cc1c(O)c(=O)ccn1-c1ccc([N+](=O)[O-])cc1`, which logP is on record?
Answer: 0.76

Question: With `CCN1C(=O)C(=O)c2cc3ccccc3cc2C1=O` as the molecule, how does the logP read?
Answer: 2.47

Question: With `CC(CCC(N)=O)n1nnc2ccccc21` (configuration not stated) as the molecule, how does the logP read?
Answer: 1.15

Question: For `CCC(C)C(NC(C)=O)C(=O)NC(CC(C)C)C(=O)NC(CC(=O)O)C(N)=O` (stereo not drawn) (Ac-Ile-Leu-Asp-NH2; configuration not given here), which logP is on record?
Answer: -0.04

Question: Which logP does the source give for `CCN(CC)CCSC(=NO)c1nonc1C` here?
Answer: 1.4

Question: With `CC(C)CNC(=O)C1(O)C(C)CC2C3CCC4=CC(=O)C=CC4(C)C3(F)C(O)CC21C` (configuration not stated) as the molecule, how does the logP read?
Answer: 3.01

Question: Which logP does the source give for `Cc1cccc(OC(C)C(=O)NNC(C)C)c1` (configuration not stated) here?
Answer: 1.88

Question: Which logP does the source give for `O=C1C(Br)=C(N2CC2)C(=O)C(Br)=C1N1CC1` here?
Answer: 2.03

Question: With `CN1C(=O)NC(=O)C(=O)C1=O` as the molecule, how does the logP read?
Answer: -1.01

Question: With `C#CCC(O)(c1cccnc1)c1ccc(Cl)cc1Cl` (configuration not stated) as the molecule, how does the logP read?
Answer: 2.29

Question: Which logP does the source give for `Cc1c(Cl)cccc1Cl` here?
Answer: 3.99

Question: For `Cc1cc(Cl)ccc1Cl`, which logP is on record?
Answer: 3.97

Question: For `O=C(NC(CO)C(O)c1ccc(-c2ccccn2)cc1)C(F)(F)F` (configuration not stated), which logP is on record?
Answer: 1.31

Question: For `OC1CCN(CCCc2ccc(CSc3ccccc3)cc2)CC1`, which logP is on record?
Answer: 3.67

Question: Which logP does the source give for `CSCCC(NC(C)=O)C(=O)NC(Cc1ccccc1)C(N)=O` (configuration not stated) here?
Answer: 0.42

Question: Which logP does the source give for `CSC(=NOC(=O)N(C)COC1OC(C(=O)O)C(O)C(O)C1O)C(=O)N(C)C` (configuration not stated) here?
Answer: -2.52

Question: With `CCCCCCCOc1ccc(NC(=O)OCCN2CCOCC2)cc1` as the molecule, how does the logP read?
Answer: 4.96

Question: Which logP does the source give for `CCC(=O)C(CS(=O)(=O)c1ccccc1)c1ccccc1` (configuration not stated) here?
Answer: 1.82

Question: For `COc1ncnc2c1ncn2C1OC(CO)CC1F` (configuration not stated), which logP is on record?
Answer: 0.25

Question: Which logP does the source give for `CC(=O)Nc1c(I)c(C(=O)NC(CO)CO)c(I)c(C(=O)NC(CO)CO)c1I` here?
Answer: -2.27

Question: With `CSCCC(NC(C)=O)C(=O)NC(C(N)=O)C(C)C` (configuration not stated) as the molecule, how does the logP read?
Answer: -0.28

Question: Which logP does the source give for `CC1CC2C3CCC4=CC(=O)C=CC4(C)C3(F)C(O)CC2(C)C1(O)C(=O)NCC#N` (configuration not stated) here?
Answer: 1.57

Question: With `CC(=O)N(CCO)c1c(I)c(C(=O)NC(CO)CO)c(I)c(C(=O)NC(CO)CO)c1I` as the molecule, how does the logP read?
Answer: -2.33

Question: Which logP does the source give for `CCCCCOc1ccc(NC(=O)OCCN2CCOCC2)cc1` here?
Answer: 3.96

Question: For `COc1cc(C)c2c(c1OC)-c1ccc(OC)c(=O)cc1C(NC(=O)c1ccc([N+](=O)[O-])cc1)CC2` (configuration not stated), which logP is on record?
Answer: 2.96

Question: Which logP does the source give for `CCCNC(=O)c1ccccc1` here?
Answer: 1.72

Question: Which logP does the source give for `CN(C)N=Nc1ccc2oc3ccccc3c2c1` here?
Answer: 4.55

Question: Which logP does the source give for `CCCN1CC(NS(=O)(=O)N(CC)CC)C=C2c3cc(O)ccc3CCC21` (configuration not stated) here?
Answer: 2.63

Question: With `COc1ccc(OCCO)cc1` as the molecule, how does the logP read?
Answer: 1.13

Question: With `CCCOc1ccc2ccc(=O)oc2c1` as the molecule, how does the logP read?
Answer: 2.86

Question: Which logP does the source give for `Cc1cc(NC(=O)C2=C(O)c3ccccc3S(=O)(=O)N2C)no1` here?
Answer: 2.83

Question: Which logP does the source give for `O=C(NN1CCCCC1)NS(=O)(=O)c1ccc(Cl)cc1` here?
Answer: 0.84

Question: For `CC(=O)NC(CCCCN)C(=O)NC(CC(C)C)C(N)=O` (stereo not drawn) (Ac-Lys-Leu-NH2; configuration not given here), which logP is on record?
Answer: -0.26

Question: Which logP does the source give for `S=C=NCCCCc1cccnc1` here?
Answer: 2.7

Question: For `CCN(CC)C(=O)c1cccc2c1C(=O)C(=O)N(CC)C2=O`, which logP is on record?
Answer: 0.78

Question: Which logP does the source give for `COc1c(O)cc2c(c1OC)-c1ccc(SC)c(=O)cc1C(NC(C)=O)CC2` (configuration not stated) here?
Answer: 1.43

Question: Which logP does the source give for `NC1C2CCC1c1ccccc1C2` (configuration not stated) here?
Answer: 1.63

Question: Which logP does the source give for `CC1(c2ccccc2)OC(=O)NC1=O` (configuration not stated) here?
Answer: 1.85

Question: For `O=[N+]([O-])C=C1NCCN1c1ccc(Cl)nc1`, which logP is on record?
Answer: -0.23

Question: For `CSC1=NCCN1c1ccc([N+](=O)[O-])o1`, which logP is on record?
Answer: 1.19
